Source: patent US5523457A, “Retinoid-like compounds” (Bristol-Myers Squibb Company, priority 1995, dated 1996)
Where two headings read alike, the source gives them in different places.

Assays:
lung line L2987 = experiment: Cytotoxicity assay (alamarBlue cell viability), lung line L2987, experiment 2; type: cell-based; conditions: Homo sapiens
Procedure: FIG. 1 is the cytotoxicity dose response curves for lung line L2987. […] Briefly, the assayed involved plating 1000 cells per well in a volume of 120 μL in a 96 well flat-bottom dish (Corning) on day -1. Twenty-four hours later the appropriate dilution of a compound of formula I was added in a volume of 30 μL complete medium (final volume 150 μL). The plates were sealed with a plate sealer (Dynatech Labs) to prevent evaporation. On day 5 the mylar film was removed and 15 μL of sterile alamarBlue was added to each well and the cells were incubated 37° C. 5% CO2 for two hours. Using a Vmax plate reader the optical density for each well was determined having the […]. The 100% signal was determined for cells grown in complete medium containing only 0.5% DMSO. All wells were set-up in triplicate and the mean values were plotted in FIG. 1.

[1] = system: second primary tumors in squamous-cell carcinoma of the head and neck; conditions: Hong et al., N. Engl. J. Med., 1990; cited from earlier work
[2] = L2987 lung line, 1000 cells per well, compound added 24 h after plating, read on day 5 with alamarBlue, triplicate wells, read-out: IC50 values for L2987 experiment 2

| SMILES | IC50 (lung line L2987; [2]) [µM] | other results |
| --- | --- | --- |
| CC1=C(/C=C/C(C)=C/C=C/C(C)=C/C(=O)O)C(C)(C)CCC1 [All trans retinoic acid, reference compound] | – | IC50 (lung line L2987; L2987, read-out: IC50 values for L2987 experiment 2): 68 µM |
| O=C(O)c1ccc(NC(=O)c2ccc3cccc(-c4ccccc4)c3c2)cc1 [I^2' a, 4-[[(8-phenyl-2-naphthalenyl)carbonyl]amino]benzoic acid] | 72 | – |
| Cc1cc(C)cc(-c2cccc3ccc(C(=O)Nc4ccc(C(=O)O)cc4)cc23)c1 [I^2' b, 4-[[[8(3,5-Dimethylphenyl)-2-naphthalenyl]carbonyl]amino]benzoic acid] | 39 | – |
| Cc1ccc(-c2cccc3ccc(C(=O)Nc4ccc(C(=O)O)cc4)cc23)cc1C [I^2' f, 4-[[[8-(3,4-Dimethylphenyl)-2-naphthalenyl]carbonyl]amino]benzoic acid] | 49 | – |
| Cc1ccc(-c2cccc3ccc(C(=O)Nc4ccc(C(=O)O)cc4)cc23)c(C)c1 [I^2' g, 4-[[[8-(2,4 -Dimethylphenyl)-2-naphthalenyl]carbonyl]amino]benzoic acid] | 54 | – |
| CC1=C(/C=C/C(C)=C/C=C/C(C)=C\C(=O)O)C(C)(C)CCC1 [Isotretinoin] | – | prevention of second primary tumors in squamous-cell carcinoma of the head and neck [1]: shown to be useful in prevention of second primary tumors |
